# Where a name gives a salt, the structure may show the parent alone.
# System: pancreatic B cell function
# Assay: Plasma insulin response to intraperitoneal arginine after tumour resection
# Conditions: plasma insulin at 0, 30 and 60 min, groups of 6 rats
smiles,measurement,setting,value
"N=C(N)NCCC[C@H](N)C(=O)O [arginine, arginine hydrochloride]","plasma insulin response to arginine, 1 day after tumour resection","arginine hydrochloride 2 g kg-1 i.p. in 0.9% NaCl, ex-tumour bearing rats 1 day after resection",failed to evoke a plasma insulin response
same,"insulin response to arginine, 12 days after tumour resection","arginine hydrochloride 2 g kg-1 i.p., ex-tumour bearing rats 12 days after resection",impaired
